Reference: patent publication US20240336655A1, “AMPHIPHILIC PEPTIDES FOR NUCLEIC ACID AND PROTEIN DELIVERY” (AJK BIOPHARMACEUTICAL, LLC, priority 2021, published 2024)
Peptide text beside a SMILES is read from it.

What was measured:
siRNA = experiment: Serum stability / protection of siRNA against enzymatic degradation in fetal bovine serum; type: in vitro ADME; settings: 24 hours of exposure to serum, N/P ratio of 40, compared to siRNA exposed to saline
Excerpt: Serum Stability. In order to determine the capability of the complexes to protect the siRNA against enzymatic degradation, Inventors exposed different study groups to a diluted fetal bovine serum (FBS) solution, with “naked” siRNA as a positive control, and siRNA exposed to saline as a negative control according to the previously reported procedure (Mozaffari S, Bousoik E, Amirrad F, Lamboy R, Coyle M, Hall R, Alasmari A, Mahdipoor P, Parang K, Montazeri Aliabadi H. Amphiphilic Peptides for Efficient siRNA Delivery. Polymers (Basel). 2019; 11(4) doi: 10.3390/polym11040703. PubMed PMID: 30999603; PMCID: PMC6523661).
(§1) The binding affinity for [CR4W4C] […] The toxicity of the peptides was evaluated in triple-negative breast cancer (TNBC) cells MDA-MB-231 (as a model cancer cell line) with peptide alone and siRNA complexes, and CCK assay to quantify cell viability after 48 hours.
Protection of siRNA against Enzymatic Degradation. […] After the incubation, complexes were dissociated using a 2:3 mixture of heparin (5% solution in normal saline) and EDTA (0.5 mM), and the samples were analyzed using a 1% agarose gel (with 1 μg/mL ethidium bromide) at 70 V for 20 minutes. UV illumination (Gel-Doc system, Bio-Rad; Hercules, CA) was used to visualize the gel, and the intensity of the bands (representing remaining intact siRNA) was quantified by Image J software (FIG. 8).

MDA-MB-231 cells = experiment: Cytotoxicity of peptides and peptide/siRNA complexes in MDA-MB-231 cells (MTT / CCK); type: cell-based, human; settings: as compared to commercial agent lipofectamine
Procedure: as §1
The human breast cancer cell line MDA-MB-231 was purchased from American Type Culture Collection (ATCC; Manassas, VA). MDA-MB-231 was cultured in the DMEM medium. The media was supplemented with 10% (v/v) fetal bovine serum, 100 U/mL penicillin, and 100 μg/ml streptomycin. Cells were maintained in the normal condition of 37° C. and 5% CO2 under a humidified atmosphere and were sub-cultured when 80-100% confluent.
Toxicity of the Peptide/siRNA Complexes: The effect of peptides on the viability of human cell lines was evaluated by exposing the MDA-MB-231 cell lines (FIGS. 9-12) to different concentrations of peptide solution and exposing the cells to peptide/siRNA complexes prepared with different peptides at a various peptide:siRNA ratios according to the previously reported procedure by us (Mozaffari S, Bousoik E, Amirrad F, Lamboy R, Coyle M, Hall R, Alasmari A, Mahdipoor P, Parang K, Montazeri Aliabadi H. Amphiphilic Peptides for Efficient siRNA Delivery. Polymers (Basel). 2019; 11(4). doi: 10.3390/polym11040703. PubMed PMID: 30999603; PMCID: PMC6523661). […]

protection of siRNA in the presence of serum (siRNA)	Structure (SMILES)	toxicity (MDA-MB-231 cells)
protect siRNA completely	N=C(N)NCCC[C@@H]1NC(=O)[C@H](CCCNC(=N)N)NC(=O)[C@H](CCCNC(=N)N)NC(=O)[C@H](CCCNC(=N)N)NC(=O)[C@H](CCCNC(=N)N)NC(=O)[C@@H](NC(=O)[C@H](Cc2c[nH]c3ccccc23)NC(=O)[C@H](Cc2c[nH]c3ccccc23)NC(=O)[C@H](Cc2c[nH]c3ccccc23)NC(=O)[C@@H](N)Cc2c[nH]c3ccccc23)CSSC[C@@H](C(=O)N[C@@H](Cc2c[nH]c3ccccc23)C(=O)N[C@@H](Cc2c[nH]c3ccccc23)C(=O)N[C@@H](Cc2c[nH]c3ccccc23)C(=O)N[C@@H](Cc2c[nH]c3ccccc23)C(=O)O)NC1=O [W4[CR5C]W4] (HELM PEPTIDE1{W.W.W.W.C.R.R.R.R.R.C.W.W.W.W}$PEPTIDE1,PEPTIDE1,5:R3-11:R3$$$V2.0; N-terminus and C-terminus assumed)	without toxicity
protect siRNA completely	N=C(N)NCCC[C@@H]1NC(=O)[C@H](CCCNC(=N)N)NC(=O)[C@H](CCCNC(=N)N)NC(=O)[C@H](CCCNC(=N)N)NC(=O)[C@@H](N)CSSC[C@@H](C(=O)O)NC(=O)[C@H](Cc2c[nH]c3ccccc23)NC(=O)[C@H](Cc2c[nH]c3ccccc23)NC(=O)[C@H](Cc2c[nH]c3ccccc23)NC(=O)[C@H](Cc2c[nH]c3ccccc23)NC1=O [[CR4W4C]] (HELM PEPTIDE1{C.R.R.R.R.W.W.W.W.C}$PEPTIDE1,PEPTIDE1,1:R3-10:R3$$$V2.0; N-terminus and C-terminus assumed)	without toxicity
